Where two headings read alike, the source gives them in different places.
How the values were obtained:
[1] = molecular target: T1, 5-HT2A receptor (Homo sapiens, UniProt P28223); test: h5-HT2A affinity, agonist radioligand [125I]DOI; type: binding
[2] = molecular target: T2, human 5-HT2C receptor (Homo sapiens, UniProt P28335); test: h5-HT2C affinity, agonist radioligand [125I]DOI; type: binding
T2 sequence (P28335 33-458): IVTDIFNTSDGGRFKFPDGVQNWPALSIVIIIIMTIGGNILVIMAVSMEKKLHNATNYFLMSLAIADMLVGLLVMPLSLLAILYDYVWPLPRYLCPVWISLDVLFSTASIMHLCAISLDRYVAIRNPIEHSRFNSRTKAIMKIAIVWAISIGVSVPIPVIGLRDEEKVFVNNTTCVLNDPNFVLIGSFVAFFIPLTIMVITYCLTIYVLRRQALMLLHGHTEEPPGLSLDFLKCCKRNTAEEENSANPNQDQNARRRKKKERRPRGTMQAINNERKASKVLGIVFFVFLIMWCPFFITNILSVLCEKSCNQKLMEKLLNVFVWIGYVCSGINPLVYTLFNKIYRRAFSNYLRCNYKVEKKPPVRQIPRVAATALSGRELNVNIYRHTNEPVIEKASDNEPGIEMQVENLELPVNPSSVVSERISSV

[3] = molecular target: 5-HT2B (Homo sapiens, UniProt P41595); test: PDSP screening affinity 5-HT2B; type: binding
Sequence of 5-HT2B (P41595 whole entry): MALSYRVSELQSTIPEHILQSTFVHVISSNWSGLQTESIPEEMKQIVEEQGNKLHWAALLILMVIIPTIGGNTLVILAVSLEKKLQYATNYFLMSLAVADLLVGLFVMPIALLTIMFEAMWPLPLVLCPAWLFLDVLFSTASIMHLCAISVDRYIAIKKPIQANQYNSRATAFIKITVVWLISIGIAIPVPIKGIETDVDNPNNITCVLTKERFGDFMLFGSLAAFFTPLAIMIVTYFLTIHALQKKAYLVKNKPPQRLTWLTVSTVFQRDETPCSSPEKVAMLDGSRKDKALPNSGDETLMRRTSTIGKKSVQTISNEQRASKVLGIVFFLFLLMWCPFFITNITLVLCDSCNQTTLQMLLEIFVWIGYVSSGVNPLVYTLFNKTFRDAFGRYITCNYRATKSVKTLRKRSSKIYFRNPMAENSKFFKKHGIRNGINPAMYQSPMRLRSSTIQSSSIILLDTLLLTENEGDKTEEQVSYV

[4] = molecular target: T3, r5-HT2C (Rattus norvegicus, UniProt P08909); test: Ca2+ mobilization assay; type: cell-based
T3 sequence (P08909 33-460): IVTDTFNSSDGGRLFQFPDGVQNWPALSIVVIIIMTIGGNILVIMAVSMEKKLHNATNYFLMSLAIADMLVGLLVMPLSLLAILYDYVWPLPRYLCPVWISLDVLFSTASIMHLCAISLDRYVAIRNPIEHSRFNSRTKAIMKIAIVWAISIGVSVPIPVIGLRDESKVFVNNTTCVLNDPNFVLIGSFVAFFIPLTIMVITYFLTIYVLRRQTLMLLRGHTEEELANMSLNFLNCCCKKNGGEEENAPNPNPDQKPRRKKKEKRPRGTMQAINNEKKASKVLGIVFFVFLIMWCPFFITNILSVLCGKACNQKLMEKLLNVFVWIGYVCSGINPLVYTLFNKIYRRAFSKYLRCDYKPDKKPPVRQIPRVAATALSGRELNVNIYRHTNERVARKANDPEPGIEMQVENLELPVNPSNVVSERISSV

[5] = molecular target: 5-HT7 (Homo sapiens, UniProt P34969); test: PDSP screening affinity 5-HT7; type: binding
Sequence of 5-HT7 (P34969 whole entry): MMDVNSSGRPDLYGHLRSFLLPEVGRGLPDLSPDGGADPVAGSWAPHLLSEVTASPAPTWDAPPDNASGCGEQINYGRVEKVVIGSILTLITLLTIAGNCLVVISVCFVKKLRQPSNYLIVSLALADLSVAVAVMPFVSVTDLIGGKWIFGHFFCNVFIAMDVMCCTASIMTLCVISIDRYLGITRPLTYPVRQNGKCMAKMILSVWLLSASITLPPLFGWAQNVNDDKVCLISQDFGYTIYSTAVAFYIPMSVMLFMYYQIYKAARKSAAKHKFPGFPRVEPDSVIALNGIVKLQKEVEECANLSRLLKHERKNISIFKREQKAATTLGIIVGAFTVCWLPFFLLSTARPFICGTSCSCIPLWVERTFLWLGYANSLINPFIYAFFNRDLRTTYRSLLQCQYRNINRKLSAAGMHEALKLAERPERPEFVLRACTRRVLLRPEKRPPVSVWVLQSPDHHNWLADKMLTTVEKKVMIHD

[6] = molecular target: 5-HT1B (Homo sapiens, UniProt P28222); test: PDSP screening affinity 5-HT1B; type: binding
Sequence of 5-HT1B (P28222 whole entry): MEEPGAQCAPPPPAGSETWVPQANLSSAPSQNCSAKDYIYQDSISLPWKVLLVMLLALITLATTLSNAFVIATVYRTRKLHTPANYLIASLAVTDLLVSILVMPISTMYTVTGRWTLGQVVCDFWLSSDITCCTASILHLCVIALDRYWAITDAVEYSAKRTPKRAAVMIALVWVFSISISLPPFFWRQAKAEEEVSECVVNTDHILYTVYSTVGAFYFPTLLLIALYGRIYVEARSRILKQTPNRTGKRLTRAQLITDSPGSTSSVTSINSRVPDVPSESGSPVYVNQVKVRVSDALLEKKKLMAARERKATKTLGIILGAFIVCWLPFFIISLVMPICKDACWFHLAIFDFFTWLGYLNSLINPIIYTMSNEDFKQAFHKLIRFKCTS

[7] = molecular target: r5-HT2A (Rattus norvegicus, UniProt P14842); test: Ca2+ mobilization assay; type: cell-based
Sequence of r5-HT2A (P14842 whole entry): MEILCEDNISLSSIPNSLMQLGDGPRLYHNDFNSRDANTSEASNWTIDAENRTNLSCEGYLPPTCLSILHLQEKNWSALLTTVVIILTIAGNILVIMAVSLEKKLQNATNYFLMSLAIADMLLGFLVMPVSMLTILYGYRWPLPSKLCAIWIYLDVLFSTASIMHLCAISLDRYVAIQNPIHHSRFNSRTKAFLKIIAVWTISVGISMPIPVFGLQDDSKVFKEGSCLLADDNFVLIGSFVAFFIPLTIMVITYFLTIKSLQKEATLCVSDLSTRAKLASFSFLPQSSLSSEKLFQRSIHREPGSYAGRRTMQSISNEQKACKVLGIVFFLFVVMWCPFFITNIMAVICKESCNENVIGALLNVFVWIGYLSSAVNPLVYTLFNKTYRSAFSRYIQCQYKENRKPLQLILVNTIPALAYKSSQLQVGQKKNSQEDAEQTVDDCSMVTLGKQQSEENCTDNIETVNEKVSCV

[8] = molecular target: T4, 5-HT1A (Homo sapiens, UniProt P08908); test: PDSP screening affinity 5-HT1A; type: binding
T4 sequence (P08908 1-422): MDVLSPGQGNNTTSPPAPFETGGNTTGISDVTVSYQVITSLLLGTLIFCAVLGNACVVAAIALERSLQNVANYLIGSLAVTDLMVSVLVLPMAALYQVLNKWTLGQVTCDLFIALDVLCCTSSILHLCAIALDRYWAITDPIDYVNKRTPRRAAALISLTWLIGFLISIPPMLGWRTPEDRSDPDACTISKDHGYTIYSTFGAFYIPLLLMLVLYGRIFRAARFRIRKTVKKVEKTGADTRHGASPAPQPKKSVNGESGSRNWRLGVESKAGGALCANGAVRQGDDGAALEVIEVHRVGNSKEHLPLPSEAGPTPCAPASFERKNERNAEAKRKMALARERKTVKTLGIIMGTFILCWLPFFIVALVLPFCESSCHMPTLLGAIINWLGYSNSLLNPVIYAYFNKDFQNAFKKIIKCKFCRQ

[9] = molecular target: T5, h5-HT2C (Homo sapiens, UniProt P28335); test: Ca2+ mobilization assay; type: cell-based
T5 sequence (P28335 33-458): T2 sequence (P28335 33-458)

[10] = molecular target: T2, human 5-HT2C receptor; test: h5-HT2C affinity, antagonist radioligand [3H]mesulergine; type: binding
[11] = molecular target: T6, 5-HT3 (Homo sapiens, UniProt P46098); test: PDSP screening affinity 5-HT3; type: binding
T6 sequence (P46098 24-478): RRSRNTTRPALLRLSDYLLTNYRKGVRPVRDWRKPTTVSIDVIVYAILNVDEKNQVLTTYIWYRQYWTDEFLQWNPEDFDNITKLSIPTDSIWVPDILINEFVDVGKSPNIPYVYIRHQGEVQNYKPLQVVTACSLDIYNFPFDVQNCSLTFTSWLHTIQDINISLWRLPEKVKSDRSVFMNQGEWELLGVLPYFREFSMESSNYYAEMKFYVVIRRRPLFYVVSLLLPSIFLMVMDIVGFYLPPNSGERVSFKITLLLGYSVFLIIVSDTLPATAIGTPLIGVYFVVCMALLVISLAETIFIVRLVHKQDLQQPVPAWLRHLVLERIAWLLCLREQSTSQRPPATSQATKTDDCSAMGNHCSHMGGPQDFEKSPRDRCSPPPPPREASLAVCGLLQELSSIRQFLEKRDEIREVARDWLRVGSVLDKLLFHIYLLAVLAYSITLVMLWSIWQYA

[12] = molecular target: 5-ht1e (Homo sapiens, UniProt P28566); test: PDSP screening affinity 5-ht1e; type: binding
Sequence of 5-ht1e (P28566 whole entry): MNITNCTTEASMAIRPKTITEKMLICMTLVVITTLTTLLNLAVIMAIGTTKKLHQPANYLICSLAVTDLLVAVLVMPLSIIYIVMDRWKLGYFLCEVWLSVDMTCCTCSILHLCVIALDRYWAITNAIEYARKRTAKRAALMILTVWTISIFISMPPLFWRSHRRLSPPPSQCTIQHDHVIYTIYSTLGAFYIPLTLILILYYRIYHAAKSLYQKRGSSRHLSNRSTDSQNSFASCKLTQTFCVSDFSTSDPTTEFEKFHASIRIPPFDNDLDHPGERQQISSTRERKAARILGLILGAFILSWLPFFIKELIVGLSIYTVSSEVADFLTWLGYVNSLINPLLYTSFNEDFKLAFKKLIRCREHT

[13] = molecular target: 5-HT1D (Homo sapiens, UniProt P28221); test: PDSP screening affinity 5-HT1D; type: binding
Sequence of 5-HT1D (P28221 whole entry): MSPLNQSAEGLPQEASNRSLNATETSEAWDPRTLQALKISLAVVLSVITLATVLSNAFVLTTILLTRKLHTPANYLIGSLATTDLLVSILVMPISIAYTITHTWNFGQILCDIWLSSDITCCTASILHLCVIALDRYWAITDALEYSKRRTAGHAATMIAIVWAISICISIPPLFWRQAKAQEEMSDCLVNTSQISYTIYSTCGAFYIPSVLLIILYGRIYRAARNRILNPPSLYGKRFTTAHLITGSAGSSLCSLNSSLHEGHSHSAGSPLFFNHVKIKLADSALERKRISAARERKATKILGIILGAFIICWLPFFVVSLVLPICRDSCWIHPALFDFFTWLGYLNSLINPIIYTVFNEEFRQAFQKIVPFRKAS

[14] = molecular target: T1, 5-HT2A receptor; test: h5-HT2A affinity, antagonist radioligand [3H]ketanserin; type: binding
[15] = molecular target: 5-ht5a (Homo sapiens, UniProt P47898); test: PDSP screening affinity 5-ht5a; type: binding
Sequence of 5-ht5a (P47898 whole entry): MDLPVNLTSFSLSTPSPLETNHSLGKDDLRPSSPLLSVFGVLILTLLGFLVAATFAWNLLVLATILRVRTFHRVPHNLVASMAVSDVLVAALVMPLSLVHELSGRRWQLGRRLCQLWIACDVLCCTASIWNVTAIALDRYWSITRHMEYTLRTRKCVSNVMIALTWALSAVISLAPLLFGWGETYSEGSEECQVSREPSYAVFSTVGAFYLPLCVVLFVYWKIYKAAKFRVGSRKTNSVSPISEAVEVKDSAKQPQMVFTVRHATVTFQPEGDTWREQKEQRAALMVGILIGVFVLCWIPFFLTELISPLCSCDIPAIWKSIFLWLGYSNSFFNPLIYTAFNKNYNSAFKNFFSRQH

[16] = molecular target: 5-HT6 (Homo sapiens, UniProt P50406); test: PDSP screening affinity 5-HT6; type: binding
Sequence of 5-HT6 (P50406 whole entry): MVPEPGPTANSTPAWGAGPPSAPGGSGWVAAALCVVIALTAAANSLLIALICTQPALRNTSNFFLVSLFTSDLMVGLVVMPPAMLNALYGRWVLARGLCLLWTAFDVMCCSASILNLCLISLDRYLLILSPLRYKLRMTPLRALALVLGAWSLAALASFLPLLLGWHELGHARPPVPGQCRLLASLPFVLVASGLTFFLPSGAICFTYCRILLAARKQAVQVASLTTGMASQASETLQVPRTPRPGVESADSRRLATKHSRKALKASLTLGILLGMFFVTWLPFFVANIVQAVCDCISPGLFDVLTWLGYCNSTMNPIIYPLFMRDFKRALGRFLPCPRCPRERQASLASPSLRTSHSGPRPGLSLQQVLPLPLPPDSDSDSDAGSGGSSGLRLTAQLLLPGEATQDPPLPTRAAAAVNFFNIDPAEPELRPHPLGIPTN

[17] = molecular target: h5-HT2A (Homo sapiens, UniProt P28223); test: Ca2+ mobilization assay; type: cell-based
Sequence of h5-HT2A (P28223 whole entry): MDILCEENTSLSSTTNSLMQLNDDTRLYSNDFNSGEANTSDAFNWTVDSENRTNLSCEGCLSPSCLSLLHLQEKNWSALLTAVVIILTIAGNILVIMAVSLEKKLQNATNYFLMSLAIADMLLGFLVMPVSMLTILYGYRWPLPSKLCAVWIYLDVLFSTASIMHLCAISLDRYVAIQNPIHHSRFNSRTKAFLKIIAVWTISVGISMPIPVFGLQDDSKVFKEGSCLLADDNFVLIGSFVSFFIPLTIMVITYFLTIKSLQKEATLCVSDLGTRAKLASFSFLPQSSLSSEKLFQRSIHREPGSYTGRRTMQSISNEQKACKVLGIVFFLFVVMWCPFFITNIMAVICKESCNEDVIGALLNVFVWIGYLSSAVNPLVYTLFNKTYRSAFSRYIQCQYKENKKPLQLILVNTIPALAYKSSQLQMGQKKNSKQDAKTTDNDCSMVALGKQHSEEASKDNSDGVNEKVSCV

[18] = test system: Male C57BL/6J mice; test: Mouse head twitch response
[19] = molecular target: h5-HT2B (Homo sapiens, UniProt P41595); test: Ca2+ mobilization assay; type: cell-based
Sequence of h5-HT2B (P41595 whole entry): as the sequence (P41595 whole entry) above

[20] = [125I]DOI, n = 3–5 displacement curves
[21] = percentage of the maximum response to 5-HT

T1 sequence (P28223 whole entry): as the sequence (P28223 whole entry) above

SMILES: COc1ccc(CNCCc2cc(OC)c(I)cc2OC)cc1 [Compound 4b, N-(4-Methoxybenzyl)-2-(4-iodo-2,5-dimethoxyphenyl)ethan-1-amine]
- Ki [1]: 0.0007 µM
- Ki [2]: 0.00363 µM
- Ki ([3]; 5-HT2B pKi ± SEM): 0.0166 µM
- EC50 ([4]; r5-HT2C EC50, Ca2+ mobilization): 0.132 µM
- Emax ([4]; read-out: r5-HT2C Emax): 97 ± 2%
- Ki ([5]; 5-HT7 affinity): 1.57 µM
- Ki ([6]; 5-HT1B affinity): 1.59 µM
- EC50 ([7]; r5-HT2A EC50, Ca2+ mobilization): 0.05 µM
- Emax ([7]; read-out: r5-HT2A Emax, percentage of the maximum response to 5-HT): 53.8 ± 0.9%
- Ki ([8]; 5-HT1A affinity): 1.06 µM
- Emax ([9]; HEK293, read-out: h5HT2C Emax): 50 ± 7%
- EC50 ([9]; h5HT2C EC50, Ca2+ mobilization): 0.0432 µM
- Ki [10]: 0.0141 µM
- Ki [11]: > 10 µM
- Ki [12]: 1.28 µM
- Ki [13]: 0.325 µM
- Ki [14]: 0.0117 µM
- Ki ([15]; 5-ht5a affinity): 1.02 µM
- Ki ([16]; 5-HT6 affinity): 0.075 µM
- EC50 [17]: 0.06 µM
- Emax ([17]; HEK293, read-out: h5-HT2A Emax, percentage of the maximum response to 5-HT): 74.1 ± 0.8%
- activity in the HTR assay (active / inactive) ([18]; SC, doses up to 30 mg/kg): None of the phenethylamines or tryptamines with 4-substituted N-benzyl groups, 4b, 4e, 5c, or 5f, was active
- Emax ([19]; HEK293, read-out: h5-HT2B Emax): 38 ± 2%
- EC50 ([19]; h5-HT2B EC50, Ca2+ mobilization): 0.087 µM

SMILES: COc1ccc2[nH]cc(CCNCc3cccc(C)c3)c2c1 [Compound 5j, N-(3-Methylbenzyl)-2-(5-methoxy-1H-indol-3-yl)ethan-1-amine]
- h5-HT2A pKi ± SEM [1, 20]: 8.93 ± 0.11
- selectivity h5-HT2A versus h5-HT2C, affinity at the [125I]-DOI-labeled receptors ([1]; agonist-labeled receptors): < 3 fold
- Ki ([1]; read-out: h5-HT2A Ki, [125I]DOI): 0.00117 µM
- h5-HT2C pKi ± SEM [2, 20]: 8.47 ± 0.08
- Ki ([2]; read-out: h5-HT2C Ki, [125I]DOI): 0.00339 µM
- 5-HT2B pKi ± SEM [3]: 8.71 ± 0.03
- Ki ([3]; read-out: 5-HT2B affinity): 0.0019 µM
- r5-HT2C pEC50 ± SEM ([4]; Ca2+ mobilization): 6.72 ± 0.04
- r5-HT2C Emax [4, 21]: 104 ± 2%
- EC50 ([4]; read-out: r5-HT2C EC50, Ca2+ mobilization): 0.192 µM
- 5-HT7 pKi ± SEM [5]: 6.67 ± 0.05
- Ki ([5]; read-out: 5-HT7 affinity): 0.212 µM
- 5-HT1B pKi ± SEM [6]: 5.37 ± 0.07
- Ki ([6]; read-out: 5-HT1B affinity): 4.24 µM
- r5-HT2A pEC50 ± SEM ([7]; Ca2+ mobilization): 7.6 ± 0.04
- r5-HT2A Emax [7, 21]: 56.2 ± 0.9%
- EC50 ([7]; read-out: r5-HT2A EC50, Ca2+ mobilization): 0.026 µM
- 5-HT1A pKi ± SEM [8]: 6.57 ± 0.04
- Ki ([8]; read-out: 5-HT1A affinity): 0.271 µM
- h5HT2C pEC50 ± SEM ([9]; Ca2+ mobilization): 6.54 ± 0.10
- h5HT2C Emax [9, 21]: 75 ± 4%
- EC50 ([9]; read-out: h5HT2C EC50, Ca2+ mobilization): 0.289 µM
- h5-HT2C pKi ± SEM ([10]; [3H]mesulergine, n = 3–5 displacement curves): 7.65 ± 0.03
- Ki ([10]; read-out: h5-HT2C Ki, [3H]mesulergine): 0.0224 µM
- Ki ([11]; read-out: 5-HT3 affinity, PDSP screening, human): > 10 µM
- 5-ht1e pKi ± SEM ([12]; PDSP screening, human): 5.41 ± 0.05
- Ki ([12]; read-out: 5-ht1e affinity, PDSP screening, human): 3.88 µM
- 5-HT1D pKi ± SEM ([13]; PDSP screening, human): 6.55 ± 0.06
- Ki ([13]; read-out: 5-HT1D affinity, PDSP screening, human): 0.283 µM
- h5-HT2A pKi ± SEM ([14]; [3H]ketanserin, n = 3–5 displacement curves): 8.32 ± 0.17
- Ki ([14]; read-out: h5-HT2A Ki, [3H]ketanserin): 0.00479 µM
- 5-ht5a pKi ± SEM [15]: 5.41 ± 0.06
- Ki ([15]; read-out: 5-ht5a affinity): 3.85 µM
- 5-HT6 pKi ± SEM [16]: 7.21 ± 0.03
- Ki ([16]; read-out: 5-HT6 affinity): 0.062 µM
- h5-HT2A pEC50 ± SEM ([17]; Ca2+ mobilization): 8.2 ± 0.04
- selectivity in function h5-HT2A vs h5-HT2C ([17]; Ca2+ mobilization): 44 fold
- h5-HT2A Emax [17, 21]: 73.3 ± 1.0%
- EC50 ([17]; read-out: h5-HT2A EC50, Ca2+ mobilization): 0.0065 µM
- max counts ([18]; HTR counts, SC): 14.6
- active doses ([18]; SC, mouse head twitch): 10 mg/kg
- magnitude of peak effect × vehicle ([18]; SC, mouse head twitch): 3.5 × vehicle
- maximally effective dose ([18]; SC, mouse head twitch): 10 mg/kg
- HTR at 30 mg/kg ([18]; biphasic bell-shaped dose–response, 30 mg/kg SC): inactive
- h5-HT2B pEC50 ± SEM ([19]; Ca2+ mobilization, NA = not active, Emax ≤ 15%): NA ^b (NA, not active; Emax ≤ 15%)
